Columns and labels:
[1] = system: larvae of the mustard beetle (Phaedon cochleariae); assay: Phaedon larvae test; assay type: in vivo; conditions: cabbage leaves (Brassica oleracea) dipped into preparation of active compound; result in words
Experimental: (§1) Phaedon larvae test • Solvent: 31 parts by weight of dimethylformamide • Emulsifier: I part by weight of alkylaryl polyglycol ether To produce a suitable preparation of active compound, 1 part by weight of active compound is mixed with the stated amounts of solvent and emulsifier, and the concentrate is diluted with emulsifier-containing water to the desired concentration. Cabbage leaves (Brassica oleracea) are treated by being dipped into the preparation of active compound of the desired concentration and populated with larvae of the mustard beetle (Phaedon cochleariae) while the leaves are still moist. After the desired period of time, the kill in % is determined. 100% means that all beetle larvae have been killed; 0% means that none of the beetle larvae have been killed.

[2] = system: common spider mite (Tetranychus urticae); assay: Tetranychus test (OP resistent/dip treatment); assay type: in vivo; conditions: bean plants (Phaseolus vulgaris) infested by all stages, dip treatment, OP resistent; result in words
Experimental: Tetranychus test (OP resistent/dip treatment) • Solvent: 30 parts by weight of dimethylformamide • Emulsifier: 1 part by weight of alkylaryl polyglycol ether To produce a suitable preparation of active compound, 1 part by weight of active compound is mixed with the stated amounts of solvent and emulsifier, and the concentrate is diluted with emulsifier-containing water to the desired concentration. Bean plants (Phaseolus vulgaris) which are heavily infested by all stages of the common spider mite (Tetranychus urticae) are dipped into a preparation of active compound of the desired concentration. After the desired period of time, the kill in % is determined. 100% means that all spider mites have been killed; 0% means that none of the spider mites have been killed.

[3] = system: larva (L3) of the army worm (Spodoptera frugiperda); assay: Spodoptera frugiperda test; assay type: in vivo; conditions: preparation pipetted onto synthetic feed, result in words
Experimental: Spodoptera frugiperda test • Solvent: 31 parts by weight of dimethylformamide • Emulsifier: 1 part by weight of alkylaryl polyglycol ether To produce a suitable preparation of active compound, 1 part by weight of active compound is mixed with the stated amount of solvent and the stated amount of emulsifier, and the concentrate is diluted with emulsifier-containing water to the desired concentration. A stated amount of the preparation of active compound of the desired concentration is pipetted onto a standardized amount of synthetic feed. In 6 repetitions, in each case one larva (L3) of the army worm (Spodoptera frugiperda) is placed on the feed. After the desired period of time, the kill in % is determined. 100% means that all animals have been killed; 0% means that none of the animals have been killed.

[4] = system: Heliothis virescens caterpillars; assay: Heliothis virescens test; assay type: in vivo; conditions: soya bean shoots (Glycine max) dipped; result in words
Experimental: as §1, with “Heliothis virescens” for “Phaedon larvae”, “30” for “31”, “1” for “I”, “Soya bean shoots (Glycine max)” for “Cabbage leaves (Brassica oleracea)”, “Heliothis virescens caterpillars” for “larvae of the mustard beetle (Phaedon cochleariae)”, “caterpillars” for “beetle larvae”

| melting point [°C] | Structure (SMILES) | other results |
| --- | --- | --- |
| 136 | CCC1COC(C)/C(=C(\C#N)C(=O)c2ccc(Cl)cc2)N1 (centres unmarked) [I-1-a-1, 3-(4-chlorophenyl)-2-(5-ethyl-2-methyl-1,4-oxazinon-3-ylidene)-3-oxopropionitrile] | – |
| 195 | CC1OCCN/C1=C(/C#N)C(=S)c1cc(C(F)(F)F)cc(C(F)(F)F)c1 (centres unmarked) [I-1-a-2, 3-[3,5-bis(trifluoromethyl)phenyl]-2-(2-methyl-1,4-oxazinan-3-ylidene)-3-thioxopropionitrile] | – |
| 192 | N#CC(C(=O)c1ccc(Cl)cc1)=C1COCCN1 [I-1-a-5, 3-(4-chlorophenyl)-2-(1,4-oxazinan-3-ylidene)-3-oxo-propionitrile] | – |
| 182 | N#CC(C(=O)c1cc(C(F)(F)F)cc(C(F)(F)F)c1)=C1CSCCN1 [I-1-a-10, 3-[3,5-bis(trifluoromethyl)phenyl]-2-(1,4-thiazinan-3-ylidene)-3-oxo-propionitrile] | activity (kill in %) against Phaedon cochleariae larvae [1]: good activity; activity (kill in %) against Tetranychus urticae [2]: good activity |
| 142 | CC1OCCNC1=C(C#N)C(=O)c1cc(C(F)(F)F)cc(C(F)(F)F)c1 (centres unmarked) [I-1-a-14, 3-[3,5-bis(trifluoromethyl)phenyl]-2-(2-methyl-1,4-oxazinan-3-ylidene)-3-oxopropionitrile] | activity (kill in %) against Spodoptera frugiperda larvae [3]: good activity; activity (kill in %) against Heliothis virescens caterpillars [4]: good activity |
| 224 to 226 | N#C/C(C(=O)c1cc(C(F)(F)F)cc(C(F)(F)F)c1)=C1\CS(=O)(=O)CCN1 [I-1-a-15, 3-[3,5-bis(trifluoromethyl)phenyl]-2-(1,1-dioxo-Iλ^6,4-thiazinan-3-ylidene)-3-oxo-propionitrile] | – |
| 119 | CC1OCCN/C1=C(/C#N)C(=O)c1cc(-c2ccc(Cl)cc2)cc(C(F)(F)F)c1 (centres unmarked) [I-1-a-37, 3-[3-(4-chlorophenyl)-5-trifluoromethylphenyl]-2-(2-methyl-1,4-oxazinon-3-ylidene)-3-oxopropionitrile] | – |

Source: patent publication US7186829B1, “Aryl-substituted heterocyclic enaminones” (Bayer Aktiengesellschaft, priority 1999, dated 2007)
